The source of these data is patent US9426950B2, “Production of Deschampsia antartica in bioreactors” (priority 2012, dated 2016).

The structures appear in SMILES notation.

The test system of data set [1] is D. antarctica explants. Description: Effect of growth regulators on D. antarctica's morphogenic response and biomass production in bioreactors (SIT). In kind it is in vivo, Deschampsia antarctica. The note with it: for type of morphogenic response (roots / shoots): AIB with BAP or alone, BAP alone or ratio favoring BAP; for reproduction rate / organogenic response: SIT method (FIG. 7); for survival of explants compared with the control treatment: growth regulators in the culture medium, bioreactors (FIG. 6); for biomass production: treatments supplemented with growth regulators (FIG. 9). From the text:
In order to determine the appropriate composition of growth regulators for explant propagation and to establish the differences in the physical state of the liquid culture medium compared to the semisolid medium, a comparative study was done on the effect of growth regulators on the culture medium using the SIT method and the conventional propagation method, SSS. To determine the growth regulators' effect on D. antarctica's morphogenic response and biomass formation, a study was done on the effect of combining the cytokinin 6-benzylaminopurine (6-BAP) (0.0; 0.5; 1.0; and 3.0 mgL-1) with the auxin indolbutyric acid (AIB) (0.0; 0.1; 0.25; and 0.5 mgL^−1). Likewise, a study was done of the effect of a set concentration of gibberellic acid (3 mgL-1) combined with the auxins and cytokinins and their isolated effect in the culture medium. Gibberellic acid is associated with the elongation of tissues, and it could play a significant role in biomass growth.
For each bioreactor, 50 to 60 explants with the phenotype characteristics indicated in the osmotic agent test were used in 1000 ml of nutritive medium for each condition, keeping an initial treatment weight of 2 grams. For the SSS method, 25 explants were used in Petri dishes with 40 ml of a medium gelled with agar (Gelzan′) at a rate of 2.5 gL^−1.
A 12-hour immersion frequency was used, with immersion times of 3 minutes and aeration times of 5 minutes.
For this test, the total weight of inoculated biomass was adjusted at 2.0 g per bioreactor. Therefore, the number of plants per bioreactor varied, and the distribution of weight and size during inoculation was random. The experimental unit was the explant.
The effect of the growth regulators was evaluated with the following variables: Increase in fresh weight (FW) per treatment, increase in fresh weight/explant, reproduction rate, survival of explants, and degree of oxidation; all of the same criteria used in the test with osmotic agents.
A sample of 25 explants was taken for each treatment in order to measure the different variables.

The test system of data set [2] is D. antarctica explants. Put plainly: Effect of osmoregulating agents on D. antarctica explants cultivated in temporary immersion bioreactors. The conditions noted are these: glucose 5 gL−1; mannitol 5 gL−1; PEG 5 gL−1 and 20 gL−1 (FIG. 4). In kind it is in vivo.
Data set [3] has as its system D. antarctica explants. The data set is described as above. Format: in vivo. The conditions noted are these: for fresh weight: glucose 5 gL−1 and 20 gL−1, sodium chloride 5 gL−1 (FIG. 5); for degree of oxidation (scale of Table 1): in vivo. An excerpt:
The Deschampsia antarctica plants were reproduced in bioreactors with a liquid culture medium. The nutritive growth conditions were formulated using the inorganic salts proposed by (Murashige, 1973) (MS), supplemented with saccharose 30 gL^−1. In order to determine the conditions needed to obtain high growth and morphophysiological development rates for the tissues, an evaluation was done of the immersion frequency conditions and the addition of osmotic and growth regulating agents.
The regulation of the culture medium's hydric potential determines the quality of the morphogenic response of the plants being cultivated in vitro, especially in systems using liquid culture media (Hua et at, 2010; Stanly et al., 2010). The experiment consisted of evaluating the effect of osmoregulating agents at different concentrations [mannitol (10 and 20 gL-1), glucose (5 and 20 gL-1), polyethylene glycol (5 and 10 gL^−1), and NaCl (5, 10, and 20 gL-1)] on the morphogenic response and biomass production of D. antarctica.
In each bioreactor, 100 plants from the semisolid culture (SSS) that were more than 2 cm tall, with well-developed, expanded leaves, were inoculated in triplicate. The dead leaves and oxidized tissue that grows around the crown of the plants were removed. The bioreactors' initial volume was adjusted to 1000 ml per cultivation jar. A 12-hour immersion frequency was used, with an immersion time of 300 seconds and an aeration time of 60 minutes.
The average initial weight of the explants in each treatment was taken. The repetitions were distributed randomly in the culture trays.
The effect of the osmoregulators was evaluated with the following variables: Increase in fresh weight (FW) per treatment, increase in fresh weight per explant, multiplication rate, explant survival rate, and degree of oxidation.
To calculate survival, live explants were assigned a value of 1, while dead explants were assigned a value of 0. The data was entered into a double-entry matrix where the osmoregulator-type factor is compared to the survival variable. A scale of the explants' damage from phenolization was developed to calculate the degree of oxidation, and is described in Table 1.
The degree of oxidation was calculated using the Townsend and Neuberger formula (1943), which considers the frequency and intensity with which the explant damage occurs, using the equation:
[formula] Where: • P=weighted degree of severity of oxidation • n=number of explants for each category in the scale • v=numerical value of each category • CM=largest category • N=total number of explants in the sample
The percentage of explants oxidized in treatment was also calculated, using the equation:
[formula] Where: • % O=percentage of explants oxidized in each treatment • EO=number of oxidized explants in the sample • ET=total number of explants evaluated in the sample
To determine the average increase in fresh weight (IFW) in each treatment, the initial weight of the inoculated explants in each bioreactor was taken (including an experimental unit) and then averaged. The fresh weight data was collected at the end of each repetition in each treatment. The increase in fresh weight was calculated using the equation: IFW=FWf−FWo Equation 3 Where: • IFW=average fresh weight increase in each treatment • FWf=average final fresh weight of the biomass in each treatment • FWo=average initial fresh weight of the biomass in each treatment
To determine the average fresh weight increase per explant (IFWe) for each treatment, each explant was measured at the beginning and end of the test for each repetition, and the averages were calculated. The fresh weight increase was calculated using the equation: IFWe=FWef−FWeo Equation 4 Where: • IFWe=average fresh weight increase per explant • FWef=average final fresh weight of the biomass in each bioreactor • FWeo=average initial fresh weight of the biomass in each bioreactor. […]

In the case of `O=C(O)CCCc1c[nH]c2ccccc12` [AIB, indolbutyric acid], in the data set on D. antarctica explants [1], the “type of morphogenic response (roots / shoots)” value is “induced root formation”; the “reproduction rate / organogenic response” value is reported as “did not have a significant effect on the reproduction rate”; the “survival of explants compared with the control treatment” value is recorded as “Neither the addition of AIB or BAP, nor the combination of these growth regulators, significantly increased the survival”; the biomass production result is recorded as “increased significantly”.
Turning to `c1ccc(CNc2ncnc3nc[nH]c23)cc1` [BAP, 6-benzylaminopurine], in the data set with D. antarctica explants [1], the “type of morphogenic response (roots / shoots)” value is reported as “induced only shoot formation or the development of aerial biomass”; the “reproduction rate / organogenic response” value was “sufficient to induce efficient organogenic responses”; the “survival of explants compared with the control treatment” value is “Neither the addition of AIB or BAP, nor the combination of these growth regulators, significantly increased the survival”; the biomass production entry is reported as “increased significantly”.
Regarding `C=C1C[C@]23C[C@@]1(O)CC[C@H]2[C@@]12C=C[C@H](O)[C@@](C)(C(=O)O1)[C@H]2[C@@H]3C(=O)O` [GA3, gibberellic acid], in the data set on D. antarctica explants [1], the “reproduction rate / organogenic response” value is “significantly reduced the reproduction rate” and the “survival of explants compared with the control treatment” value is “significantly lower than the control treatment”.
As for `O=C[C@H](O)[C@@H](O)[C@H](O)[C@H](O)CO` [glucose], the reproduction rate result with D. antarctica explants [2] is given as “greatest”. Besides, in the data set on D. antarctica explants [3], the fresh weight entry is reported as “increased significantly” and the “degree of oxidation (scale of Table 1)” value is “degree 1”. In addition, the survival rate in the data set with D. antarctica explants [3] (glucose at 5 gL−1, temporary immersion bioreactors) amounted to 100%. Also, the “reduction of the explants' survival rate” value with D. antarctica explants [3] (glucose concentration increased to 20 gL-1) is on record as “up to 50%”. Also, the “explants' growth” value with D. antarctica explants [3] (increased concentrations of glucose) is on record as “did not significantly affect the explants' growth”.
With `OC[C@@H](O)[C@@H](O)[C@H](O)[C@H](O)CO` [mannitol], the reproduction rate result with D. antarctica explants [2] is “statistically different from the control treatment”. In addition, the “degree of oxidation (scale of Table 1)” value in the data set with D. antarctica explants [3] is recorded as “degree 1”.
On to `[Cl-].[Na+]` [sodium chloride], for which, in the data set with D. antarctica explants [3], the fresh weight result was “increased significantly”. The “decrease of fresh weight” value in the data set with D. antarctica explants [3] (increased concentration of sodium chloride (FIG. 5)) is 60%. Moreover, the “survival of the explants” value in the data set on D. antarctica explants [3] (three concentrations of sodium chloride studied (5, 10, 20 gL-1)) is given as “significantly affected the survival of the explants”.
